{"source": "patent US20250368651A1", "about": "(priority 2022, published 2025)", "key": {"[1]": {"system": "SMN2 exon 7 splicing", "test": "Cell-based SMN2 splicing assay in 293T cells (minigene)", "parameters": "species or system human", "conditions": "Homo sapiens, HEK-293T"}, "[2]": {"molecular_target": "DNA Seq15 TGAAGGATGGT", "test": "FP binding assay, DNA Seq15", "conditions": "Seq 15 TGAAGGATGGT; 0.5 μM SMN-C2", "protocol": "(§1) All synthetic DNA and RNA oligomers were purchased from Integrated DNA Technologies and reconstituted in nuclease-free water (Invitrogen #AM9932) at 1 mM. The concentration of the oligonucleotides at ˜0.1 mM was calibrated with the A260 value measured by a NanoDrop ND-1000 (Thermo, Waltham, MA, USA) and the predicted extinction coefficient (http://www.oligoevaluator.com) using Lamber-Beer's Law. The risdiplam analogues (1 mM in DMSO) were diluted in 2× assay buffer (40 mM HEPES, 200 mM NaCl for RNA; 40 mM HEPES, 200 mM NaCl, 1 mM MgCl2 for DNA) to make a 1 μM 2× working solution.\n(§2) A 1:2 dilution series (8 points) of each oligonucleotide was prepared in 20-30 μL water to desired concentrations (i.e., 1-128 μM). […] For fluorescence polarization measurement, 20 μL of the above 1× working solution was transferred into a 384-well, black, F-bottom microplates (Greiner Bio-One) in duplicates or triplicates. The plate was equilibrated at room temperature for 5 min before being read using a microplate reader (SYNERGY H1, BioTek; Excitation/Emission=360/460 nm) at 25° C. […] The mixture was then transferred into a microplate (20 μL each well) in duplicates for fluorescence polarization readout. The experimental data were analyzed using Prism 8 software (Graphpad Software, San Diego, CA, USA)."}, "[3]": {"test": "in vitro", "conditions": "human"}, "[4]": {"molecular_target": "DNA S5 […]", "test": "FP binding assay, 18-nt DNA S5", "protocol": "as §1, §2"}, "[5]": {"molecular_target": "DNA S8 […]", "test": "FP binding assay, 18-nt DNA S8", "protocol": "as §1, §2"}, "[6]": {"molecular_target": "DNA S15 […]", "test": "FP binding assay, 18-nt DNA S15", "protocol": "as §1, §2"}, "[7]": {"molecular_target": "DNA Seq14 AGAAGGTAGGT", "test": "FP binding assay, DNA Seq14", "conditions": "Seq 14 AGAAGGTAGGT; 0.5 μM SMN-C2", "protocol": "as §1, §2"}, "[8]": {"molecular_target": "DNA S19 […]", "test": "FP binding assay, 18-nt DNA S19", "protocol": "as §1, §2"}, "[9]": {"molecular_target": "DNA S6 […]", "test": "FP binding assay, 18-nt DNA S6", "protocol": "as §1, §2"}, "[10]": {"molecular_target": "DNA S25 […]", "test": "FP binding assay, 18-nt DNA S25", "protocol": "as §1, §2"}, "[11]": {"molecular_target": "RNA Seq7 UUAAGGAAGGU", "test": "FP binding assay, RNA Seq7", "conditions": "Seq 7 UUAAGGAAGGU; 0.5 μM SMN-C2", "protocol": "as §1, §2"}, "[12]": {"test": "in vitro", "conditions": "human", "remark": "listed apart in the source"}, "[13]": {"molecular_target": "DNA S3 […]", "test": "FP binding assay, 18-nt DNA S3", "protocol": "as §1, §2"}, "[14]": {"molecular_target": "DNA S18 […]", "test": "FP binding assay, 18-nt DNA S18", "protocol": "as §1, §2"}, "[15]": {"molecular_target": "DNA Seq17 TGAAGGAAGAT", "test": "FP binding assay, DNA Seq17", "conditions": "Seq 17 TGAAGGAAGAT; 0.5 μM SMN-C2", "protocol": "as §1, §2"}, "[16]": {"molecular_target": "DNA S21 […]", "test": "FP binding assay, 18-nt DNA S21", "protocol": "as §1, §2"}, "[17]": {"molecular_target": "DNA S1 […]", "test": "FP binding assay, 18-nt DNA S1", "conditions": "range = 95% CI", "protocol": "as §1, §2"}, "[18]": {"molecular_target": "DNA Seq16 TGAAGGAAAGT", "test": "FP binding assay, DNA Seq16", "conditions": "Seq 16 TGAAGGAAAGT; 0.5 μM SMN-C2", "protocol": "as §1, §2"}, "[19]": {"molecular_target": "DNA Seq13 (UGAAGAAAGGU as deoxyribonucleotides)", "test": "FP binding assay, DNA Seq13", "conditions": "Seq 13; 0.5 μM SMN-C2", "protocol": "as §1, §2"}, "[20]": {"molecular_target": "DNA S12 […]", "test": "FP binding assay, 18-nt DNA S12", "protocol": "as §1, §2"}, "[21]": {"molecular_target": "DNA Seq10 (UAAAGGAAGGU as deoxyribonucleotides)", "test": "FP binding assay, DNA Seq10", "conditions": "Seq 10; 0.5 μM SMN-C2", "protocol": "as §1, §2"}, "[22]": {"system": "SMN2 exon 7 minigenes with single-point mutations M1 and M2", "test": "SMN2 splicing assay with minigenes mutated in the GA-rich sequence (M1, M2) in 293T cells", "format": "cell-based, human"}, "[23]": {"system": "dsDNA formed by annealing Seq6 and its reverse complement, Seq6_RC", "test": "ITC, dsDNA (annealed Seq6 and Seq6_RC)", "format": "binding", "conditions": "dsDNA of Seq6 and Seq6_RC", "protocol": "The figures are representation of three independent experiments.\nIsothermal calorimetric titrations were carried out on a Malvern Analytical MicroCal PEAQ-ITC at 25° C. The DNA (see above for the calibration procedure) and the SMN-C2 water solutions containing the desired amount of the materials were freeze-dried overnight (Labconco FreeZone 4.5 Liter Benchtop Freeze Dry System) and then re-suspended in appropriate volume of buffer containing 5% DMSO, 100 mM NaCl and 30 mM MES buffer at pH 6.0 (e.g., 350 μL for DNA Seq6, 80 μL for SMN-C2). […] The analysis was performed using the instrument's MicroCal PEAQ-ITC Analysis Software (Malvern Analytical). The ITC data was fit using the One Set of Sites mode to calculate the dissociate constant (Kd), binding stoichiometry, and the changes in enthalpy and Gibbs free energy. In differential power (DP) trace, the baseline was subtracted for better visualization, which has no impact on calculations."}, "[24]": {"molecular_target": "DNA S10 […]", "test": "FP binding assay, 18-nt DNA S10", "protocol": "as §1, §2"}}, "note": "Read-outs that look alike come from different tables or passages of the source."}
{"compound": "CCN1CCN(c2ccc3cc(-c4cn5cc(C)nc(C)c5n4)c(=O)oc3c2)C[C@@H]1C", "note": "[SMN-C2, (S)-3-(6,8-dimethylimidazo[1,2-a]pyrazin-2-yl)-7-(4-ethyl-3-methylpiperazin-1-yl)-2H-chromen-2-one]", "values": [{"measurement": "EC50", "setting": "[1]; Table 3, read-out: SMN2 Splicing EC50", "value": "0.0635 ± 0.0296", "unit": "µM"}, {"measurement": "EC50", "setting": "[1]; cell-based SMN2 splicing assay in 293T cells, read-out: SMN2 EC50", "value": "0.26 ± 0.13", "unit": "µM"}, {"measurement": "Kd", "setting": "[2]", "value": "41.1 ± 4.4", "unit": "µM"}, {"measurement": "CC50", "setting": "[3]", "value": "> 30", "unit": "µM"}, {"measurement": "Kd", "setting": "[4]", "value": "42.3 ± 4.2", "unit": "µM"}, {"measurement": "Kd", "setting": "[5]", "value": "12.4 ± 0.4", "unit": "µM"}, {"measurement": "Kd", "setting": "[6]", "value": "31.4 ± 4", "unit": "µM"}, {"measurement": "Kd", "setting": "[7]", "value": "> 100", "unit": "µM"}, {"measurement": "Kd", "setting": "[8]", "value": "21 ± 1.1", "unit": "µM"}, {"measurement": "Kd", "setting": "[9]", "value": "33.3 ± 2.3", "unit": "µM"}, {"measurement": "Kd", "setting": "[10]", "value": "48 ± 7.8", "unit": "µM"}, {"measurement": "Kd", "setting": "[11]", "value": "42.3 ± 13.3", "unit": "µM"}, {"measurement": "CC50", "setting": "[12]", "value": "> 30", "unit": "µM"}, {"measurement": "Kd", "setting": "[13]", "value": "21.7 ± 2.7", "unit": "µM"}, {"measurement": "Kd", "setting": "[14]", "value": "> 50", "unit": "µM"}, {"measurement": "Kd", "setting": "[15]", "value": "56.4 ± 10.4", "unit": "µM"}, {"measurement": "Kd", "setting": "[16]", "value": "> 50", "unit": "µM"}, {"measurement": "Kd", "setting": "[17]", "value": "15.3 ± 0.6", "unit": "µM"}, {"measurement": "Kd", "setting": "[18]", "value": "27.4 ± 6", "unit": "µM"}, {"measurement": "Kd", "setting": "[19]", "value": "> 100", "unit": "µM"}, {"measurement": "Kd", "setting": "[20]", "value": "37.4 ± 6.7", "unit": "µM"}, {"measurement": "Kd", "setting": "[21]", "value": "> 100", "unit": "µM"}, {"measurement": "exon 7 inclusion", "setting": "[22]; 1 μM, 293T cells transfected with mutated minigenes M1, M2", "value": "> 90", "unit": "%"}, {"measurement": "EC50 relative to minigene with wildtype exon 7 sequence, fold higher", "setting": "[22]; mutated minigenes M1, M2 in 293T cells", "value": "2-3 fold"}, {"measurement": "binding to dsDNA (ITC)", "setting": "[23]", "value": "abrogated most of the binding affinity"}, {"measurement": "Kd", "setting": "[24]", "value": "26.4 ± 2.2", "unit": "µM"}]}
